The results in this text go back to patent publication US20210355107A1, “MULTI-SUBSTITUTED PYRIDONE DERIVATIVES AND MEDICAL USE THEREOF” (Beijing Yuezhikangtai Biomedicines Co., Ltd., priority 2018, published 2021).

Each structure is given as a SMILES string.

The target of this assay is T1, tyrosine kinase Mer (Homo sapiens, UniProt Q12866).
T1 construct: purchased Carna 08-108
T1 sequence (Q12866 528-999 limits assumed): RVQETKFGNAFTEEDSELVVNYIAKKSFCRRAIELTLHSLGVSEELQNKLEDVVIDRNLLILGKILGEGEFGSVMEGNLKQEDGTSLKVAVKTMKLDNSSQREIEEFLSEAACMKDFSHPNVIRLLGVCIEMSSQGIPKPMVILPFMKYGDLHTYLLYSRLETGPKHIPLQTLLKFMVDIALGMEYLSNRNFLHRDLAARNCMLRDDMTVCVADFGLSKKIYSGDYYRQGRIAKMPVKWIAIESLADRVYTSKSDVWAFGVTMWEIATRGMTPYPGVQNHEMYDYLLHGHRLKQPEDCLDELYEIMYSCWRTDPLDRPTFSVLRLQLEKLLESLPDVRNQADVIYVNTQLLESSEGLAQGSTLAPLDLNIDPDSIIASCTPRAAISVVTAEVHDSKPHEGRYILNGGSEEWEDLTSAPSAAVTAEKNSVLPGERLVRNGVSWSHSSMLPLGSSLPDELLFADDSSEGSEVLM
Description: HTRF assay, inhibitory activity against tyrosine kinase Mer. Type of assay: biochemical. Particulars: ATP at Km (30 μM), two duplicate wells. As for the experimental part: Test Example 2: Evaluation of Inhibitory Activity (IC50) of Compounds disclosed herein against Tyrosine Kinases Mer and Tyro3
In this test, HTRF method was used to test the inhibitory activity of compounds when ATP concentrations correspond to the Km of the kinases. The control substance was RXDX-106. The concentration of test compound was 3-fold diluted from an initial concentration of 10 μM, and two duplicate wells were set.
Kinase Mer (Carna, Cat. No. 08-108, Lot. No. 14CBS-0421H); Tyro3 (Carna, Cat. No. 08-109, Lot. No. 08CBS-1186H); HTRF kinase-TK kit (Cisbio, Cat. No. 62TK0PEC), the kit comprising: biotin-TK substrate lyophilized powder (Cisbio, Cat. No. 61TK0BLC, Lot. No. 07A), streptavidin-XL665 (Cisbio, Cat. No. 610SAXLG, Lot. No. 126A), TK antibody-cryptate (Cisbio, Cat. No. 610SAXLG, Lot. No. 04A), and detection buffer (including EDTA) (Cisbio, Cat. No. 62TK0PEC, Lot. No. 12A); ATP (Sigma, Cat. No. A7699-5G, CAS No. 34369-07-8, Lot. No. SLBQ6014V); DMSO (Sigma, Cat. No. D5879-1L, Lot. No. SHBH9944); HEPES (Sigma, Cat. No. V900477-500G, CAS No. 7365-45-9, Lot. No. WXBC4716V); MgCl2 (Sigma, Cat. No. 208337-1KG, Lot. No. MKBX9508V); EGTA (Sigma, Cat. No. E3889-100g, CAS 67-42-5, […], Lot. No. SLBG8546V); NP-40 (Beijing Dingguo, Cat. No. DH218, Lot. No. 36R00160); DTT (Sigma, Cat. No. D0632-25g, CAS No. 3483-12-3, Lot. No. SLBF3964V); compound plate (Labcyte, Cat. No. LP0200, Lot. No. 0006386836); assay plate (Greiner, Cat. No. 784075, Lot. No. E16123HM); control substance RXDX-106 (prepared according to the method disclosed in patent WO2013074633).
1) Preparation of a buffer: 50 mM HEPES, 10 mM MgCl2, 1 mM EGTA, 0.01% NP-40, 2 mM DTT.
2) Preparation of control substance and test samples: RXDX-106 and the compounds disclosed herein were each dissolved in DMSO to 10 mM and then diluted to 1 mM or an appropriate concentration with DMSO, and then serial double dilution was performed using BRAVO (Agilent). 100 nL of each was transferred from a compound plate (Labcyte-LP0200) to an assay plate (Greiner-784075) using ECHO 555 (Labcyte). The final concentration of DMSO was 1%.
3) Mer and Tyro3 were each diluted to 0.5 nM and 1.2 nM with the detection buffer (Cisbio, Cat. No. 62TK0PEC, Lot. No. 12A). 5 μL of each was added to a 384-well plate and incubated with the compounds disclosed herein for 30 min at 22-25° C. Final concentrations of Mer and Tyro3 were 0.25 nM and 0.6 nM, respectively.
4) Biotin-TK substrate and ATP were each diluted to a concentration twice the final concentration with 1× kinase buffer made up of HEPES, NaN3, BSA and orthovanadate. 5 μL of the mixture of substrate and ATP was added to the 384-well plate to initiate the reaction, which lasts for 1 h at 22-25° C.
5) Streptavidin-XL665 and TK antibody-cryptate were diluted to 250 nM and 0.5 nM, respectively, with the detection buffer. […] of each of the two solutions was added to the 384-well plate to initiate the reaction, which lasts for 1 h at 22-25° C. The final concentrations of streptavidin-XL665 and TK antibody-cryptate were 125 nM and 0.25 nM, respectively.
6) The fluorescence intensities at 665 nm and 615 nm were read with an Envision Reader (PerkinElmer) .
7) IC50 values of the compounds were fitted with XL-fit software.
As for `CC(C)n1cc(C(=O)Nc2ccc(-c3cc(-c4cnn(C5CCNCC5)c4)cnc3N)c(F)c2)c(=O)c(-c2ccc(F)cc2)c1C#N` [Example 2, N-(4-(2-amino-5-(1-(piperidin-4-yl)-1H-pyrazol-4-yl)pyridin-3-yl)-3-fluorophenyl)-6-cyano-5-(4-fluorophenyl)-1-isopropyl-4-oxo-1,4-dihydropyridine-3-carboxamide], the IC50 was found to be 0.62 nM.

Consider `CCn1cc(-c2cnc(N)c(-c3ccc(NC(=O)c4cn(C(C)C)c(C#N)c(-c5ccc(F)cc5)c4=O)cc3F)c2)cn1` [Example 3, N-(4-(2-amino-5-(1-ethyl-1H-pyrazol-4-yl)pyridin-3-yl)-3-fluoro-phenyl)-6-cyano-5-(4-fluorophenyl)-1-isopropyl-4-oxo-1,4-dihydropyridine-3-carboxamide], for which the IC50 is 1.11 nM.

As for `CC(C)n1cc(C(=O)Nc2ccc(-c3cc(-c4cnn(C)c4)cnc3N)c(F)c2)c(=O)c(-c2ccc(F)cc2)c1C#N` [Example 4, N-(4-(2-amino-5-(1-methyl-1H-pyrazol-4-yl)pyridin-3-yl)-3-fluorophenyl)-6-cyano-5-(4-fluorophenyl)-1-isopropyl-4-oxo-1,4-dihydropyridine-3-carboxamide], the midpoint of inhibition, the IC50, lay at 0.78 nM.

Compound `CC(C)n1cc(C(=O)Nc2cc(F)c(-c3cc(-c4cnn(C)c4)cnc3N)cc2F)c(=O)c(-c2ccc(F)cc2)c1C#N` [Example 6, N-(4-(2-amino-5-(1-methyl-1H-pyrazol-4-yl)pyridin-3-yl)-2,5-difluorophenyl)-6-cyano-5-(4-fluorophenyl)-1-isopropyl-4-oxo-1,4-dihydropyridine-3-carboxamide] registered an IC50 of 1.17 nM.

As for `CC(C)n1cc(C(=O)Nc2ccc(-c3cc(-c4cnn(C5CCN(C)CC5)c4)cnc3N)c(F)c2)c(=O)c(-c2ccc(F)cc2)c1C#N` [Example 7, N-(4-(2-amino-5-(1-(1-methylpiperidin-4-yl)-1H-pyrazol-4-yl)-pyridin-3-yl)-3-fluorophenyl)-6-cyano-5-(4-fluorophenyl)-1-isopropyl-4-oxo-1,4-dihydro-pyridine-3-carboxamide], it took 0.63 nM to reach half-maximal inhibition (IC50).

With `CCn1cc(-c2cnc(N)c(-c3ccc(NC(=O)c4cn(C5CC5)c(C#N)c(-c5ccc(F)cc5)c4=O)cc3F)c2)cn1` [Example 10, N-(4-(2-amino-5-(1-ethyl-1H-pyrazol-4-yl)pyridin-3-yl)-3-fluorophenyl)-6-cyano-5-(4-fluorophenyl)-1-cyclopropyl-4-oxo-1,4-dihydropyridine-3-carboxamide], the half-inhibitory concentration (IC50) worked out at 2.17 nM.

`COc1cc2nccc(Oc3ccc(NC(=O)c4cn(C(C)C)c(C#N)c(-c5ccc(F)cc5)c4=O)cc3F)c2cc1OC` [Example 24, 6-cyano-N-(4-((6,7-dimethoxyquinolin-4-yl)oxy)-3-fluoro-phenyl)-5-(4-fluorophenyl)-1-isopropyl-4-oxo-1,4-dihydropyridine-3-carboxamide]: it took 11.4 nM to reach half-maximal inhibition (IC50).

As for `CCn1cc(-c2cnc(N)c(-c3cc(F)c(NC(=O)c4cn(C(C)C)c(C#N)c(-c5ccc(F)cc5)c4=O)cc3F)c2)cn1` [Example 33, N-(4-(2-amino-5-(1-ethyl-1H-pyrazol-4-yl)pyridin-3-yl)-2,5-difluorophenyl)-6-cyano-5-(4-fluorophenyl)-1-isopropyl-4-oxo-1,4-dihydropyridine-3-carboxamide], inhibition was half-maximal at 0.92 nM (IC50).

`[2H]C([2H])([2H])n1cc(-c2cnc(N)c(-c3cc(F)c(NC(=O)c4cn(C(C)C)c(C#N)c(-c5ccc(F)cc5)c4=O)cc3F)c2)cn1` [Example 34, N-(4-(2-amino-5-(1-methyl-d3-1H-pyrazol-4-yl)pyridin-3-yl)-2,5-difluorophenyl)-6-cyano-5-(4-fluorophenyl)-1-isopropyl-4-oxo-1,4-dihydropyridine-3-carboxamide] displayed an IC50 of 1.16 nM.
